From ChEMBL document CHEMBL4616670, “Phosphine Oxides from a Medicinal Chemist's Perspective: Physicochemical and in Vitro Parameters Relevant for Drug Discovery” (J Med Chem, 2020)
≈ marks a conversion by molar mass, not a printed value.

How the values were obtained:
[1] = Acid dissociation constant, pKa1 of the compound by UV absorption spectra analysis or potentiometric titration technique; format: physicochemical
[2] = Acid dissociation constant, pKa2 of the compound by UV absorption spectra analysis or potentiometric titration technique; format: physicochemical
[3] = Equilibrium thermodynamic aqueous solubility of the compound in pH 2.3 buffer incubated for 24 hrs by UV-spectroscopy based shake flask method; format: physicochemical; settings: read-out: Therm_solubility
[4] = 168 h
Description: Chemical stability of the compound in MeOH/NH3 solution at pH >10 assessed as compound decomposition measured after 7 days by UV-RP-HPLC analysis

physchem [5] = settings: octanol/water, pH 2
Description: Octanol/water partition coefficient, log D of the compound at pH 2

physchem [6] = settings: octanol/water, pH 11
Description: Octanol/water partition coefficient, log D of the compound at pH 11

physchem [7] = settings: pH 6.8 buffer
physchem [8] = settings: MeOH/HCl solution
Description: Chemical stability of the compound in MeOH/HCl solution at pH <1 assessed as compound decomposition measured after 7 days by UV-RP-HPLC analysis

[9] = Acid dissociation constant, pKa of the compound by UV absorption spectra analysis or potentiometric titration technique; format: physicochemical
in vitro [10] = settings: human, liver microsomes
Description: Half life in human liver microsomes at 1 uM incubated prior to NADPH addition by LC-MS/MS analysis

in vitro [11] = settings: human, liver microsomes; remark: listed apart in the source
Description: Stability in human liver microsomes at 1 uM incubated prior to NADPH addition by LC-MS/MS analysis relative to hepatic blood flow

physchem [12] = settings: pH 6.8 buffer; remark: listed apart in the source
in vitro [13] = settings: human, Caco-2
Description: Permeability across apical to basolateral side in human Caco2 cells measured up to 2 hrs by LC-MS/MS analysis or scintillation counting method

in vitro [14] = settings: human, Caco-2; remark: listed apart in the source
Description: Efflux ratio of permeability in human Caco2 cells measured up to 2 hrs by LC-MS/MS analysis or scintillation counting method

[15] = Equilibrium thermodynamic aqueous solubility of the compound in pH 2.1 buffer incubated for 24 hrs by UV-spectroscopy based shake flask method; format: physicochemical; settings: read-out: Therm_solubility
[16] = Equilibrium thermodynamic aqueous solubility of the compound in pH 2 buffer incubated for 24 hrs by UV-spectroscopy based shake flask method; format: physicochemical; settings: read-out: Therm_solubility
[17] = Chemical stability of the compound in MeOH/HCl solution at pH <1 assessed as compound decomposition measured after 1 day by UV-RP-HPLC analysis; format: physicochemical; settings: read-out: Drug degradation
[18] = 24 h
Description: Chemical stability of the compound in MeOH/NH3 solution at pH >10 assessed as compound decomposition measured after 1 day by UV-RP-HPLC analysis

[19] = Equilibrium thermodynamic aqueous solubility of the compound in pH 5.9 buffer incubated for 24 hrs by UV-spectroscopy based shake flask method; format: physicochemical; settings: read-out: Therm_solubility
[20] = Basic dissociation constant, pKb of the compound by UV absorption spectra analysis or potentiometric titration technique; format: physicochemical
[21] = Chemical stability of the compound in MeOH/H2O solution at pH >10 assessed as compound decomposition measured after 1 day by UV-RP-HPLC analysis; format: physicochemical; settings: read-out: Drug degradation

Row | SMILES | Drug degradation [4] [%] | logD (physchem [5]) | logD (physchem [6]) | solubility thermodynamic at 24 h (physchem [7]) [µg/mL] | degraded at 168 h (physchem [8]) [%] | half-life at 1 µM (in vitro [10]) [h] | hepatic extraction ratio at 1 µM (in vitro [11]) | solubility thermodynamic at 24 h (physchem [12]) [µg/mL] | Papp A→B at 2 h (in vitro [13]) [×10⁻⁶ cm/s] | efflux ratio at 2 h (in vitro [14]) | Drug degradation [18] [%] | further results
1 | O=P(O)(O)c1ccc(C(F)(F)F)cc1 | < 10 | 0.6 | < -1.6 | > 54 | < 10 |  |  |  |  |  |  | pKa [1]: < 2; pKa [2]: 6.8; solubility thermodynamic at 24 h [3]: 17800 µg/mL (≈ 78.7 mM)
2 | O=C(O)c1ccc(C(F)(F)F)cc1 |  |  |  | > 48 |  | > 2.17 | < 0.23 | > 10000 | 15 | 1.3 |  | pKa [9]: 3.5
3 | CCOP(=O)(O)c1ccc(C(F)(F)F)cc1 | < 10 | 1.9 | -0.8 | > 64 | < 10 | > 2.17 | < 0.23 |  | 10 | < 0.1 |  | solubility thermodynamic at 24 h [15]: 280000 µg/mL (≈ 1100 mM)
4 | COP(=O)(O)c1ccc(C(F)(F)F)cc1 | < 10 | 1.3 |  | > 60 | < 10 | > 2.17 | < 0.23 |  |  |  |  | solubility thermodynamic at 24 h [16]: 27300 µg/mL (≈ 114 mM)
5 | O=P1(c2ccc(C(F)(F)F)cc2)NCCCO1 (configuration not stated) |  | 2 | 1.3 | > 60 |  | > 2.17 | < 0.23 |  | 57 | 0.7 | > 90 | degraded at 24 h [17]: > 90%
6 | O=P1(c2ccc(C(F)(F)F)cc2)OCCCO1 | 70 | 2.1 | 1.5 | > 66 | < 10 | > 2.17 | < 0.23 | 8800 (≈ 33.1 mM) | 95 | 0.4 | > 90 | 
7 | O=P(O)(OCCO)c1ccc(C(F)(F)F)cc1 | < 10 |  |  | > 63 | < 10 |  |  |  |  |  |  | solubility thermodynamic at 24 h [15]: > 28500 µg/mL
8 | CP(=O)(O)c1ccc(C(F)(F)F)cc1 | < 10 | 1.3 | -1.3 | > 49 | < 10 | > 2.17 | < 0.23 |  | < 5 |  |  | pKa [9]: 2; solubility thermodynamic at 24 h [19]: > 8900 µg/mL
9 | O=P1(c2ccc(C(F)(F)F)cc2)OCCNCCO1 |  | 0.5 | 1.5 | 66 (≈ 0.224 mM) | < 10 | > 2.17 | < 0.23 | > 10000 | 63 | 0.7 |  | pKb [20]: 6; degraded at 24 h [21]: 20%
10 | CC1(C)COP(=O)(c2ccc(C(F)(F)F)cc2)OC1 |  | 3.1 | 2.6 | > 67 | < 10 | > 2.17 | < 0.23 | 2800 (≈ 9.52 mM) | 73 | 0.6 | > 90 | 
